Assays:
Type in all cases: functional
[1] = system: OVCAR-3; assay: Growth inhibition of human OVCAR3 cells assessed as cell growth at 10^-7 M by sulforhodamine B assay; conditions: read-out: Activity
[2] = system: SNB-19; assay: Growth inhibition of human SNB19 cells assessed as cell growth at 10^-7 M by sulforhodamine B assay; conditions: read-out: Activity
[3] = system: HOP-62; assay: Growth inhibition of human HOP62 cells by sulforhodamine B assay
[4] = system: NCI-H522; assay: Growth inhibition of human NCI-H522 cells by sulforhodamine B assay
[5] = system: UACC-257; assay: Growth inhibition of human UACC257 cells assessed as cell growth at 10^-4 M by sulforhodamine B assay; conditions: read-out: Activity
[6] = system: 786-0; assay: Growth inhibition of human 786-0 cells by sulforhodamine B assay
[7] = system: HL-60(TB); assay: Growth inhibition of human HL-60(TB) cells assessed as cell growth at 10^-8 M by sulforhodamine B assay; conditions: read-out: Activity
[8] = system: U-251; assay: Growth inhibition of human U251 cells assessed as cell growth at 10^-7 M by sulforhodamine B assay; conditions: read-out: Activity
[9] = system: RXF 393; assay: Growth inhibition of human RXF393 cells assessed as cell growth at 10^-4 M by sulforhodamine B assay; conditions: read-out: Activity
[10] = system: HOP-62; assay: Growth inhibition of human HOP62 cells assessed as cell growth at 10^-6 M by sulforhodamine B assay; conditions: read-out: Activity
[11] = system: NCI-H460; assay: Growth inhibition of human NCI-H460 cells assessed as cell growth at 10^-7 M by sulforhodamine B assay; conditions: read-out: Activity
[12] = system: OVCAR-8; assay: Growth inhibition of human OVCAR8 cells assessed as cell growth at 10^-6 M by sulforhodamine B assay; conditions: read-out: Activity
[13] = system: RPMI-8226; assay: Growth inhibition of human RPMI8226 cells by sulforhodamine B assay
[14] = system: RXF 393; assay: Growth inhibition of human RXF393 cells assessed as cell growth at 10^-8 M by sulforhodamine B assay; conditions: read-out: Activity
[15] = system: UO-31; assay: Growth inhibition of human UO31 cells assessed as cell growth at 10^-8 M by sulforhodamine B assay; conditions: read-out: Activity
[16] = system: K562; assay: Growth inhibition of human K562 cells by sulforhodamine B assay
[17] = Growth inhibition of human NCI-ADR-RES cells by sulforhodamine B assay
[18] = system: SNB-75; assay: Growth inhibition of human SNB75 cells assessed as cell growth at 10^-4 M by sulforhodamine B assay; conditions: read-out: Activity
[19] = system: SK-MEL-28; assay: Growth inhibition of human SK-MEL-28 cells by sulforhodamine B assay
[20] = system: UACC-62; assay: Growth inhibition of human UACC62 cells assessed as cell growth at 10^-6 M by sulforhodamine B assay; conditions: read-out: Activity
[21] = system: OVCAR-3; assay: Growth inhibition of human OVCAR3 cells assessed as cell growth at 10^-4 M by sulforhodamine B assay; conditions: read-out: Activity
[22] = system: PC-3; assay: Growth inhibition of human PC3 cells assessed as cell growth at 10^-8 M by sulforhodamine B assay; conditions: read-out: Activity
[23] = system: SF-539; assay: Growth inhibition of human SF539 cells by sulforhodamine B assay
[24] = system: ACHN; assay: Growth inhibition of human ACHN cells assessed as cell growth at 10^-4 M by sulforhodamine B assay; conditions: read-out: Activity
[25] = system: MCF7; assay: Growth inhibition of human MCF7 cells assessed as cell growth at 10^-6 M by sulforhodamine B assay; conditions: read-out: Activity
[26] = Growth inhibition of human HCC2998 cells by sulforhodamine B assay
[27] = system: NCI-H322M; assay: Growth inhibition of human NCI-H322M cells assessed as cell growth at 10^-7 M by sulforhodamine B assay; conditions: read-out: Activity
[28] = system: DU-145; assay: Growth inhibition of human DU145 cells assessed as cell growth at 10^-8 M by sulforhodamine B assay; conditions: read-out: Activity
[29] = system: COLO 205; assay: Growth inhibition of human COLO205 cells assessed as cell growth at 10^-6 M by sulforhodamine B assay; conditions: read-out: Activity
[30] = system: NCI-H226; assay: Growth inhibition of human NCI-H226 cells assessed as cell growth at 10^-8 M by sulforhodamine B assay; conditions: read-out: Activity
[31] = system: U-251; assay: Growth inhibition of human U251 cells assessed as cell growth at 10^-6 M by sulforhodamine B assay; conditions: read-out: Activity
[32] = system: SNB-75; assay: Growth inhibition of human SNB75 cells assessed as cell growth at 10^-7 M by sulforhodamine B assay; conditions: read-out: Activity
[33] = system: SK-MEL-2; assay: Growth inhibition of human SK-MEL-2 cells assessed as cell growth at 10^-8 M by sulforhodamine B assay; conditions: read-out: Activity
[34] = system: SR; assay: Growth inhibition of human SR cells assessed as cell growth at 10^-6 M by sulforhodamine B assay; conditions: read-out: Activity
[35] = system: SF-268; assay: Growth inhibition of human SF268 cells by sulforhodamine B assay
[36] = system: OVCAR-5; assay: Growth inhibition of human OVCAR5 cells assessed as cell growth at 10^-7 M by sulforhodamine B assay; conditions: read-out: Activity
[37] = system: KM12; assay: Growth inhibition of human KM12 cells assessed as cell growth at 10^-6 M by sulforhodamine B assay; conditions: read-out: Activity
[38] = system: U-251; assay: Growth inhibition of human U251 cells assessed as cell growth at 10^-8 M by sulforhodamine B assay; conditions: read-out: Activity
[39] = read-out: LC50 (the source's name)
[40] = read-out: pLC50 (the source's name) (converted)

Structure (SMILES): CC(C)=CC(=O)O[C@@H]1CC(C)(C)C[C@H]2C3=CC[C@@H]4[C@@]5(C)CCC(=O)C(C)(C)[C@@H]5CC[C@@]4(C)[C@]3(C)CC[C@@]12C(=O)O
- growth at 0.1 µM [1]: 100%
- growth at 0.1 µM [2]: 88%
- GI50 ([3]; read-out: GI50): 9.26 µM
- LC50 (concentration killing 50% of cells) ([3]; read-out: LC50): > 100 µM
- TGI ([3]; read-out: TGI): 49.8 µM
- GI50 ([3]; read-out: pGI50 (converted)): 9.33 µM
- LC50 (concentration killing 50% of cells) ([3]; read-out: pLC50 (converted)): > 100 µM
- TGI ([3]; read-out: pTGI (converted)): 50.1 µM
- GI50 ([4]; read-out: GI50): 3.14 µM
- CC50 [4, 39]: > 100 µM
- TGI ([4]; read-out: TGI): 29.4 µM
- GI50 ([4]; read-out: pGI50 (converted)): 3.16 µM
- CC50 [4, 40]: > 100 µM
- TGI ([4]; read-out: pTGI (converted)): 29.5 µM
- growth at 100 µM [5]: -15%
- GI50 ([6]; read-out: GI50): 3.69 µM
- CC50 [6, 39]: > 100 µM
- TGI ([6]; read-out: TGI): 20.2 µM
- GI50 ([6]; read-out: pGI50 (converted)): 3.72 µM
- CC50 [6, 40]: > 100 µM
- TGI ([6]; read-out: pTGI (converted)): 20 µM
- growth at 0.01 µM [7]: 106%
- growth at 0.1 µM [8]: 90%
- growth at 100 µM [9]: -67%
- growth at 1 µM [10]: 100%
- growth at 0.1 µM [11]: 101%
- growth at 1 µM [12]: 79%
- GI50 ([13]; read-out: GI50): 1.46 µM
- CC50 [13, 39]: > 100 µM
- TGI ([13]; read-out: TGI): 23.3 µM
- GI50 ([13]; read-out: pGI50 (converted)): 1.48 µM
- CC50 [13, 40]: > 100 µM
- TGI ([13]; read-out: pTGI (converted)): 23.4 µM
- growth at 0.01 µM [14]: 97%
- growth at 0.01 µM [15]: 88%
- GI50 ([16]; read-out: GI50): 3.47 µM
- LC50 ([16]; read-out: LC50): > 100 µM
- TGI ([16]; read-out: TGI): > 100 µM
- GI50 ([16]; read-out: pGI50 (converted)): 3.47 µM
- LC50 ([16]; read-out: pLC50 (converted)): > 100 µM
- TGI ([16]; read-out: pTGI (converted)): > 100 µM
- GI50 ([17]; read-out: GI50): 3.75 µM
- CC50 [17, 39]: > 100 µM
- TGI ([17]; read-out: TGI): > 100 µM
- GI50 ([17]; read-out: pGI50 (converted)): 3.72 µM
- CC50 [17, 40]: > 100 µM
- TGI ([17]; read-out: pTGI (converted)): > 100 µM
- growth at 100 µM [18]: -31%
- GI50 ([19]; read-out: GI50): 11.6 µM
- CC50 [19, 39]: > 100 µM
- TGI ([19]; read-out: TGI): > 100 µM
- GI50 ([19]; read-out: pGI50 (converted)): 11.7 µM
- CC50 [19, 40]: > 100 µM
- TGI ([19]; read-out: pTGI (converted)): > 100 µM
- growth at 1 µM [20]: 73%
- growth at 100 µM [21]: -73%
- growth at 0.01 µM [22]: 96%
- GI50 ([23]; read-out: GI50): 4.75 µM
- CC50 [23, 39]: > 100 µM
- TGI ([23]; read-out: TGI): 24.2 µM
- GI50 ([23]; read-out: pGI50 (converted)): 4.79 µM
- CC50 [23, 40]: > 100 µM
- TGI ([23]; read-out: pTGI (converted)): 24 µM
- growth at 100 µM [24]: -31%
- growth at 1 µM [25]: 84%
- GI50 ([26]; HCC 2998, read-out: GI50): 3.05 µM
- CC50 ([26]; HCC 2998, read-out: LC50 (the source's name)): 58.6 µM
- TGI ([26]; HCC 2998, read-out: TGI): 13.4 µM
- GI50 ([26]; HCC 2998, read-out: pGI50 (converted)): 3.02 µM
- CC50 ([26]; HCC 2998, read-out: pLC50 (the source's name) (converted)): 58.9 µM
- TGI ([26]; HCC 2998, read-out: pTGI (converted)): 13.5 µM
- growth at 0.1 µM [27]: 90%
- growth at 0.01 µM [28]: 105%
- growth at 1 µM [29]: 103%
- growth at 0.01 µM [30]: 95%
- growth at 1 µM [31]: 74%
- growth at 0.1 µM [32]: 90%
- growth at 0.01 µM [33]: 94%
- growth at 1 µM [34]: 95%
- GI50 ([35]; read-out: GI50): 5.27 µM
- LC50 ([35]; read-out: LC50): > 100 µM
- TGI ([35]; read-out: TGI): 29.4 µM
- GI50 ([35]; read-out: pGI50 (converted)): 5.25 µM
- LC50 ([35]; read-out: pLC50 (converted)): > 100 µM
- TGI ([35]; read-out: pTGI (converted)): 29.5 µM
- growth at 0.1 µM [36]: 91%
- growth at 1 µM [37]: 48%
- growth at 0.01 µM [38]: 92%
